Assay results as given in ChEMBL document CHEMBL1151129, “Two new bioactive carbazole alkaloids from the root bark of Clausena harmandiana” (J Nat Prod, 1988).
Values after ≈ are worked out from the molar mass of the structure shown.

Experiments:
Artemia = test: Toxicity to brine shrimp; assay type: organism-based; settings: in vivo
[1] = Cytotoxicity against mouse 9PS cells; assay type: functional; settings: read-out: ED50 (the source's name)
HT-29 = test: Cytotoxicity against human HT-29 cells; assay type: functional; settings: read-out: ED50 (the source's name)
A549 = test: Cytotoxicity against human A549 cells; assay type: functional; settings: read-out: ED50 (the source's name)
[2] = Cytotoxicity against human 9KB cells; assay type: functional; settings: read-out: ED50 (the source's name)
[3] = Cytotoxicity against human KBMRI cells; assay type: functional; settings: read-out: ED50 (the source's name)

| Compound | LC50 (Artemia) | EC50 [1] | EC50 (HT-29) | EC50 (A549) | EC50 [2] | EC50 [3] |
| --- | --- | --- | --- | --- | --- | --- |
| COc1ccc2c(c1)[nH]c1cc(O)c(C=O)cc12 | 35 ppm | > 10 µg/mL | 4 µg/mL (≈ 16.6 µM) | 2.74 µg/mL (≈ 11.4 µM) | 5.7 µg/mL (≈ 23.6 µM) | 4.48 µg/mL (≈ 18.6 µM) |
| COc1ccc2c(c1)[nH]c1c(CC=C(C)C)c(O)c(C=O)cc12 | > 500 ppm | > 10 µg/mL | 1.36 µg/mL (≈ 4.4 µM) | 2.16 µg/mL (≈ 6.98 µM) | 3.01 µg/mL (≈ 9.73 µM) | 2.87 µg/mL (≈ 9.28 µM) |
